Assay results as given in patent US20250313575A1, “MACROCYCLES AS LRRK2 INHIBITORS, PHARMACEUTICAL COMPOSITIONS, AND USES THEREOF” (Merck Sharp & Dohme LLC, priority 2022, published 2025).

These compounds were tested against GST-tagged truncated human mutant G2019S LRRK2 (Homo sapiens (Human), UniProt Q5S007, G2019S) (assay: LRRK2 G2019S Km ATP LanthaScreen assay). Conditions: G2019S LRRK2, 134 μM ATP (Km ATP), LRRKtide substrate.
Format: biochemical
Experimental: Unless otherwise noted, all reactions are magnetically allowed to stir, diethyl ether used in the experiments described below is Fisher ACS certified material stabilized with BHT, and “concentrated” and/or “solvent removed under reduced pressure” means evaporating the solvent from a solution or mixture using a rotary evaporator or vacuum pump. Unless otherwise noted, flash chromatography is carried out on a Teledyne Isco (Lincoln, NE), Analogix (Burlington, WI), or Biotage (Stockholm, SWE) automated chromatography system using a commercially available cartridge as the column. Columns may be purchased from Teledyne Isco, Analogix, Biotage, Varian (Palo Alto, CA), or Supelco (Bellefonte, PA) and are usually filled with silica gel as the stationary phase. Reverse phase prep-HPLC conditions, where used, can be found at the end of each experimental section. Aqueous solutions were concentrated on a Genevac (Ipswich, ENG) or by freeze-drying/lyophilization. Unless otherwise noted, all LRRK2 pIC50 data presented in tables refers to the LRRK2 G2019S Km ATP LanthaScreen™ assay (Life Technologies Corp., Carlsbad, CA) that is described in the Biological Assay section.
The LRRK2 kinase activity reported herein as IC50 values was determined with LanthaScreen™ technology from Life Technologies Corporation (Carlsbad, CA) using GST-tagged truncated human mutant G2019S LRRK2 in the presence of the fluorescein-labeled peptide substrate LRRKtide, also from Life Technologies. The data presented for the […] depending on the specific conditions and reagents used. Assays were performed in the presence of 134 μM ATP (Km ATP). Upon completion, the assay was stopped and phosphorylated substrate detected with a terbium (Tb)-labeled anti-pERM antibody (cat. no. PV4898). The compound dose response was prepared by diluting a 10 mM stock of compound to a maximum concentration of 9.99 μM in 100% dimethylsulfoxide followed by custom fold serial dilution in dimethylsulfoxide nine times. Twenty nanoliters of each dilution was spotted via a Labcyte Echo onto a 384-well black-sided plate (Corning 3575) followed by 15 μl of a 1.25 nM enzyme solution in 1× assay buffer (50 mM Tris pH 8.5, 10 mM MgCl2, 0.01% Brij-35, 1 mM EGTA, 2 mM dithiothreitol, 0.05 mM sodium orthovanadate). Following a 15-minute incubation at room temperature, the kinase reaction was started with the addition of 5 μl of 400 nM fluorescein-labeled LRRKtide peptide substrate and 134 μM ATP solution in 1× assay buffer. The reaction was allowed to progress at ambient temperature for 90 minutes. The reaction was then stopped by the addition of 20 μl of TR-FRET Dilution Buffer (Life Technologies, Carlsbad, CA) containing 2 nM Tb-labeled anti-phospho LRRKtide antibody and 10 mM EDTA (Life Technologies, Carlsbad, CA). After an incubation of 1 h at room temperature, the plate was read on an EnVision multimode plate reader (Perkin Elmer, Waltham, MA) with an excitation wavelength of 337 nm (Laser) and a reading emission at both 520 and 495 nm. Compound IC50s were interpolated from nonlinear regression best fits of the log of the final compound concentration, plotted as a function of the 520/495-nm emission ratio using Activity base. Abase uses a 4 parameter (4P) logistic fit based on the Levenberg-Marquardt algorithm.

Sequence of GST-tagged truncated human mutant G2019S LRRK2 (Q5S007 970-2527 G2019S): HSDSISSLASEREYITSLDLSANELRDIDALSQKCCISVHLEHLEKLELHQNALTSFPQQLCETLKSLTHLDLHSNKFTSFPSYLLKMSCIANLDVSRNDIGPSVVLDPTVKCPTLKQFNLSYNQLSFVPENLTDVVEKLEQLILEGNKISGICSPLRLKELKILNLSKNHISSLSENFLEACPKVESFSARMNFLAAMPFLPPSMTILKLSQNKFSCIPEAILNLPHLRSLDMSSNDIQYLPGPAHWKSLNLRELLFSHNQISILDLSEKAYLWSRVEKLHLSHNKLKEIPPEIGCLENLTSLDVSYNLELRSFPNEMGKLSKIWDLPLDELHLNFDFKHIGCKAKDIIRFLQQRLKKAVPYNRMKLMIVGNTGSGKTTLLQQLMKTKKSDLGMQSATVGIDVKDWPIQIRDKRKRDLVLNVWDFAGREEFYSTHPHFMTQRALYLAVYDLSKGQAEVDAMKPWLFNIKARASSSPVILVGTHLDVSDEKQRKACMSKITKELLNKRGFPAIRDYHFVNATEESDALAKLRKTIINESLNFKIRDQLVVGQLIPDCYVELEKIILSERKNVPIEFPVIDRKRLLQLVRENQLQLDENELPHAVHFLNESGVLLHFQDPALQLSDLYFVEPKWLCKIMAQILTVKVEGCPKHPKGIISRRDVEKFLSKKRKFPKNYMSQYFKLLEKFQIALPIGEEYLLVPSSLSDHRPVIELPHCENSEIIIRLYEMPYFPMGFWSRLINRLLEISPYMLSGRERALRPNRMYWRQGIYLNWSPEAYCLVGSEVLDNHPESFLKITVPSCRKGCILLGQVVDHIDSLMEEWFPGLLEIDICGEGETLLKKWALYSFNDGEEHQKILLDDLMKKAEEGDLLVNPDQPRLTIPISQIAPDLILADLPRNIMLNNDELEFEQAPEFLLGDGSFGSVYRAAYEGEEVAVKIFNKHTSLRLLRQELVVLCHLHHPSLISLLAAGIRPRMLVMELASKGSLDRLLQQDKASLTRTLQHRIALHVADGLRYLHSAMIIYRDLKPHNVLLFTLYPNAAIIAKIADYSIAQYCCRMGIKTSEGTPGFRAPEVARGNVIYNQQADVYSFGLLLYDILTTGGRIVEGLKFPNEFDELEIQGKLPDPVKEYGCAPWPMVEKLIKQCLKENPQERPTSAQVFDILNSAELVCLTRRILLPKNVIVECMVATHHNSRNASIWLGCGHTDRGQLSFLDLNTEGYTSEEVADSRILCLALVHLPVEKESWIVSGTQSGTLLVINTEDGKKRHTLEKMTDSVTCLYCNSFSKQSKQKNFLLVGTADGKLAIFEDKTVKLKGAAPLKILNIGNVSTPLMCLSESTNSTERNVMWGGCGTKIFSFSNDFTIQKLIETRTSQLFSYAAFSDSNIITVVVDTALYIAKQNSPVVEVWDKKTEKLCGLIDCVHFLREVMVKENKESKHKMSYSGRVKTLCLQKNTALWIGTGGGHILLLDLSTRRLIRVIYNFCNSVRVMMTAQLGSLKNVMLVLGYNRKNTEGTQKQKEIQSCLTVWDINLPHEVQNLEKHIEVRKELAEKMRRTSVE

First: Cc1c2c(nn1C1CC1)Nc1ncc(C(F)(F)F)c(n1)N[C@H](C)CCO2 (single isomer, unassigned) [Ex-17.2, (R)- or (S)-2-cyclopropyl-3,7-dimethyl-10-(trifluoromethyl)-2,5,6,7,8,14-hexahydro-9,13-(azeno)pyrazolo[4,3-b][1]oxa[4,6,10]triazacyclotridecine]
Second: FC(F)(F)c1cnc2nc1NC1CCC1COc1c(C3CCOC3)nn(C3CCC3)c1N2 [Ex-2.62, (10aR,12aR)-3-cyclobutyl-1-((R)-(10aR,12aR)-3-cyclobutyl-1-((S)-(10aS,12aS)-3-cyclobutyl-1-((R)-(10aS,12aS)-3-cyclobutyl-1-((S)-tetrahydrofuran-3-yl)-8-(trifluoromethyl)-3,4,10,10a,11,12,12a,13-octahydro-5,9-(azeno)cyclobuta[k]pyrazolo[4,3-b][1]oxa[4,6,10]triazacyclotridecine]
The “LRRK2 pIC50” value of the first is higher: 8.24 for the first, 6.88 for the second.

Going from `Cc1nn(C2CC2)c2c1OC[C@@H]1COC[C@H]1Nc1nc(ncc1Cl)N2` [Ex-2.55, (10aS,13aS)-8-chloro-3-cyclopropyl-1-methyl-3,4,10a,11,13a,14-hexahydro-10H,13H-5,9-(azeno)furo[3,4-k]pyrazolo[4,3-b][1]oxa[4,6,10]triazacyclotridecine] to `CC(C)(C#N)c1nn(C2CCC2)c2c1OC[C@H]1CC[C@@H]1Nc1nc(ncc1C(F)(F)F)N2` [Ex-2.52, 2-((10aS,12aS)- or 2-((10aR,12aR)-3-cyclobutyl-8-(trifluoromethyl)-3,4,10,10a,11,12,12a,13-octahydro-5,9-(azeno)cyclobuta[k]pyrazolo[4,3-b][1]oxa[4,6,10]triazacyclotridecin-1-yl)-2-methylpropanenitrile], the “LRRK2 pIC50” value falls from 8.94 to 5.96.

Going from `FC(F)(F)c1cnc2nc1N[C@@H]1COC[C@H]1COc1cc(Cl)ncc1N2` [Ex-15.8, (3aS,16aS)-13-chloro-6-(trifluoromethyl)-3a,4,16,16a-tetrahydro-1H,3H,10H-5,9-(azeno)furo[3,4-k]pyrido[4,3-b][1]oxa[4,6,10]triazacyclotridecine] to `N#CC1CC1c1nn(C2CCC2)c2c1OC[C@@H]1COC[C@H]1Nc1nc(ncc1C(F)(F)F)N2` (single isomer, unassigned) [Ex-2.50, (1R,2R)- or (1S,2S)-2-((10aS,13aS)-3-cyclobutyl-8-(trifluoromethyl)-3,4,10a,11,13a,14-hexahydro-10H,13H-5,9-(azeno)furo[3,4-k]pyrazolo[4,3-b][1]oxa[4,6,10]triazacyclotridecin-1-yl)cyclopropane-1-carbonitrile], the “LRRK2 pIC50” value rises from 9.04 to 9.77.

`Cc1nn(C2CC2)c2c1OC[C@@H]1COC[C@H]1Nc1nc(ncc1C(F)(F)F)N2` [Ex-5.2, (10aS,13aS)-3-cyclopropyl-1-methyl-8-(trifluoromethyl)-3,4,10a,11,13a,14-hexahydro-10H,13H-5,9-(azeno)furo[3,4-k]pyrazolo[4,3-b][1]oxa[4,6,10]triazacyclotridecine] and `Cc1nn(C(C)C)c2c1OC[C@@H]1CC[C@H]1Nc1nc(ncc1Cl)N2` [Ex-2.61, (10aR,12aR)-8-chloro-3-isopropyl-1-methyl-3,4,10,10a,11,12,12a,13-octahydro-5,9-(azeno)cyclobuta[k]pyrazolo[4,3-b][1]oxa[4,6,10]triazacyclotridecine] are within 0.2 log units of each other in “LRRK2 pIC50” value: 9.46 for the first, 9.60 for the second.

Compared with `Cc1nn(C)c2c1OCC1(CNc3nc(ncc3C(F)(F)F)N2)CC12CCOCC2` (single isomer, unassigned) [Ex-2.17, (R)- or (S)-1″,3″-dimethyl-10″- (trifluoromethyl)-1″,2,3,5,6,7″,8″,14″- octahydro-5″H-dispiro[pyran-4,1′-cyclopropane-2′,6″- [9,13](azeno)pyrazolo[4,3-b][1]oxa[4,6,10]triazacyclotridecine]], `Cc1nn(C2CCC2)c2c1OC[C@H]1CN(CCO1)c1nc(ncc1C(F)(F)F)N2` (single isomer, unassigned) [Ex-21.1, (6R)- or (6S)-1-cyclobutyl-3-methyl-12-(trifluoromethyl)-1,5,6,8,9,16-hexahydro-11,15-(azeno)-6,10-methanopyrazolo[4,3-e][1,4]dioxa[7,9,13]triazacyclopentadecine] is lower in “LRRK2 pIC50” value: 8.42 for the first, 6.09 for the second.

First: CCn1nc(C(F)(F)F)c2c1OC[C@@H]1COC[C@H]1Nc1nc(ncc1Cl)N2 [Ex-1.20, (10aS,13aS)-8-chloro-1-ethyl-3-(trifluoromethyl)-1,4,10a,11,13a,14-hexahydro-10H,13H-5,9-(azeno)furo[3,4-k]pyrazolo[3,4-b][1]oxa[4,6,10]triazacyclotridecine]
Second: Cc1nn(C)c2c1OCC[C@@H](C)Nc1nc(ncc1C(F)(F)F)N2 (mixture of isomers) [Ex-2.2, (R)- and (S)-1,3,7-trimethyl-10-(trifluoromethyl)-1,5,6,7,8,14-hexahydro-9,13-(azeno)pyrazolo[4,3-b][1]oxa[4,6,10]triazacyclotridecine]
The “LRRK2 pIC50” value of the first is higher: 9.42 for the first, 5.45 for the second.

Compared with “(R)- or (S)-1-cyclopropyl-3,7-dimethyl-10- (trifluoromethyl)-1,5,6,7,8,14-hexahydro- 9,13-(azeno)pyrazolo[4,3- b][1]oxa[4,6,10]triazacyclotridecine [Ex-2.20]”, `COC1CCC1n1nc(C)c2c1Nc1ncc(C(F)(F)F)c(n1)NC1COCC1CO2` [Ex-2.38, (10aS,13aS)-3-((1R,2R)-(10aS,13aS)-3-((1S,2R)-(10aS,13aS)-3-((1R,2S)-(10aS,13aS)-3-((1R,2R)-(10aR,13aR)-3-((1S,2R)-(10aR,13aR)-3-((1R,2S)-2-methoxycyclobutyl)-1-methyl-8-(trifluoromethyl)-3,4,10a,11,13a,14-hexahydro-10H,13H-5,9-(azeno)furo[3,4-k]pyrazolo[4,3-b][1]oxa[4,6,10]triazacyclotridecine] is lower in “LRRK2 pIC50” value: 6.71 for the first, 6.13 for the second.

In the case of `CCOC(=O)C(C)(C)n1nc(C(C)C)c2c1OCC[C@@H](C)Nc1nc(ncc1C(F)(F)F)N2` [Ex-1.12, ethyl (R)-2-(3-isopropyl-11-methyl-8-(trifluoromethyl)-10,11,12,13-tetrahydro-5,9-(azeno)pyrazolo[3,4-b][1]oxa[4,6,10]triazacyclotridecin-1(4H)-yl)-2-methylpropanoate], the “LRRK2 pIC50” value is reported as <5.00.
`CC(C)n1nc(CO)c2c1Nc1ncc(C(F)(F)F)c(n1)N[C@@H]1CC[C@H]1CO2` [Ex-6.5, ((10aR,12aR)-3-isopropyl-8-(trifluoromethyl)-3,4,10,10a,11,12,12a,13-octahydro-5,9-(azeno)cyclobuta[k]pyrazolo[4,3-b][1]oxa[4,6,10]triazacyclotridecin-1-yl)methanol] was tested, and the “LRRK2 pIC50” value was >10.09.
For `Cc1nn(C2CCC2)c2c1OC[C@@H]1COC[C@H]1Nc1cc(ncc1F)N2` [Ex-13.8, (10aR,13aR)-3-cyclobutyl-8-fluoro-1-methyl-3,4,10a,11,13a,14-hexahydro-10H,13H-5,9-(metheno)furo[3,4-k]pyrazolo[4,3-b][1]oxa[4,6,10]triazacyclotridecine], the “LRRK2 pIC50” value was <5.00.
For `O[C@H]1CC[C@@H]1n1nc(C2CC2)c2c1OC[C@@H]1COC[C@H]1Nc1nc(ncc1C(F)(F)F)N2` (single isomer, unassigned) [Ex-6.8, (1R,2R)- or (1S,2S)-2-((10aS,13aS)-3-cyclopropyl-8-(trifluoromethyl)-10a,11,13a,14-tetrahydro-10H,13H-5,9-(azeno)furo[3,4-k]pyrazolo[3,4-b][1]oxa[4,6,10]triazacyclotridecin-1(4H)-yl)cyclobutan-1-ol], the “LRRK2 pIC50” value was >10.09.

Same assay, conditions: G2019S LRRK2, 134 μM ATP (Km ATP), LRRKtide substrate; read-out: LRRK2 pIC50 (converted)

For `COC1CC(n2nc(C)c3c2Nc2ncc(C(F)(F)F)c(n2)NC2COCC2CO3)C1` (single isomer, unassigned) [Ex-2.31, (10aS,13aS)- or (10aR,13aR)-3-((1R,3S)-3-methoxycyclobutyl)-1-methyl-8-(trifluoromethyl)-3,4,10a,11,13a,14-hexahydro-10H,13H-5,9-(azeno)furo[3,4-k]pyrazolo[4,3-b][1]oxa[4,6,10]triazacyclotridecine], the IC50 was 288 nM.
